Experimental data: patent US20160289188A1, “COMPOSITIONS AND METHODS FOR THE TREATMENT OF VIRAL DISEASES WITH PDE4 MODULATORS” (priority 2013, published 2016)
Read-outs that look alike come from different tables or passages of the source.

Columns and labels:
[1] = tested on: Junin virus; design: species or system guinea pigs; details: guinea pig, in vivo
[2] = tested on: rJunin (rRomero) virus; design: species or system guinea pigs; details: guinea pig, in vivo
[3] = tested on: Lassa (Josiah) virus; design: species or system guinea pigs; details: guinea pig, in vivo
[4] = Pharmacokinetics and tolerability in guinea pigs (Example 1); details: 50 mg/kg PO, blood by vena cava bleed

Compound	temperature findings (febrile, hypothermic) [1]	temperature findings (febrile, hypothermic) [2]	animals surviving to the end of study [3]	temperature findings (febrile, hypothermic) [3]	average weight loss [1] [%]	survival rate [1] [%]	(highest) average weight loss [2] [%]	survival rate [2] [%]	(highest) average weight loss [3] [%]	adequacy of the dose according to the pharmacokinetic results [4]	also measured
NC(=O)c1ncn([C@@H]2O[C@H](CO)[C@@H](O)[C@H]2O)n1 [Ribavirin, reference compound]	Only 1 animal was febrile on day +27	Only one animal was intermittently febrile between days +16 and +27	only one animal survived	Only one of the two animals that died was febrile once on day +17							animals surviving to the end of study [1]: all 3 animals survived; weight loss up to [1]: up to 5.2%; animals surviving to the end of study [2]: all 3 animals survived; weight loss of the intermittently febrile animal [2]: 17.67%; weight loss up to [2]: up to 3.09%; average group weight loss up to [3]: up to 15.39%
COc1ccc(C(CC(N)=O)N2Cc3ccccc3C2=O)cc1OC (stereo not drawn) [Compound A, 3-(3,4-dimethoxy-phenyl)-3-(1-oxo-1,3-dihydro-isoindol-2-yl)-propionamide]	All animals that died were febrile between day +7 and +10 and two were hypothermic on day +14	All animals that died were febrile between day +7 and +15 and four out of six were hypothermic before death	None of the animals survived	All animals were febrile between day +7 and +19 and two were hypothermic before death	0.69	50	1.33	33	12.17	within range	(highest) average weight loss ([2]; po, 50 mg/kg): 5.89%; survival rate ([2]; po, 50 mg/kg): 22%; temperature findings (febrile, hypothermic) ([2]; po, 50 mg/kg): All animals that died were febrile between day +5 and +13 and three out of seven were hypothermic before death; (highest) average weight loss ([3]; po, 50 mg/kg): 5.36%; survival rate ([3]; po, 50 mg/kg): 44%; temperature findings (febrile, hypothermic) ([3]; po, 50 mg/kg): All animals, including the survivors, were febrile between day +7 and +17 and none of the animals were hypothermic before death
CCOc1cc(C(CS(C)(=O)=O)N2Cc3cccc(NC(=O)C4CC4)c3C2=O)ccc1OC (stereo not drawn) [Compound B, N-(2-(1-(3-ethoxy-4-methoxyphenyl)-2-(methylsulfonyl)ethyl)-3-oxoisoindolin-4-yl)cyclopropanecarboxamide]	Most of the animals in this group were febrile starting at day +7 but none were recorded as hypothermic	All of the animals in this group except the survivor were febrile starting day +7 thru +11 and four were recorded as hypothermic before death		All of the animals in this group except the survivor were febrile starting day +8 thru +16 and only one was recorded as hypothermic before death	4.4	17	12.41	11	13.08	needed to be increased	survival rate [3]: 13%
